Experiment: recombinant UMI read abundance after kanamycin selection (control-corrected) (log10(CPM+1)); higher = more efficient recombination; extreme values may be limits of the assay; sequences stand for … in AGTGCAGAGAAAATCGGCCAGTTTTCTCTGCCTGCAGTCCGCATGCCGTGGGACCCCTTGGGTTCTAACCTGTTGCCTAGATTTATGCAGCGGACTGCCTTTCTCCCAAAGTGATAAACCGG…AGGTTGGTTTCACT; site = the 11-nt donor
Protocol: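 Pooled E. coli donor-specificity screen for the IS621 bridge recombinase. Each library member carries a reprogrammed 11-nt donor and a full-length LE bridge RNA expressed in cis from the natural promoter, with a paired donor-binding loop (8-nt LDG + 4-nt RDG) and a target-binding loop fixed to T5. It is co-electroporated with a T5 target plasmid; recombinase is induced with 0.07 mM IPTG and recombinants are selected on kanamycin. UMIs are counted as CPM, averaged over two biological replicates and corrected by the unselected control. Molecule = full bridge RNA written as DNA, built from the T5 scaffold: LDG = donor specificity nt 1-8, RDG = reverse complement of nt 8-11.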
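Also: IS621 bridge recombinase in Escherichia coli cells against a fixed T5 target plasmid.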

Sequence	recombinant UMI read abundance (log10)
ACGTAGACATGGACCGGTTTTCCCGGTAATCCGTATTTGGG (site ACTTAGACTCC)	0.0197
ACGTCTACATGGACCGGTTTTCCCGGTAATCCGTATTTGTG (site ACATCTACTCA)	0.796
ACGTCTACATGGACCGGTTTTCCCGGTAATCCGTATTTGTG (site ACCTCTACTCA)	0.39
ACGTCTACATGGACCGGTTTTCCCGGTAATCCGTATTTGTG (site ACGTCTACTCA)	0.512
ACGTCTACATGGACCGGTTTTCCCGGTAATCCGTATTTGTG (site ACTTCTACTCA)	0.0124
ACGTCTGCATGGACCGGTTTTCCCGGTAATCCGTATTTGCT (site ACGTCTGCTAG)	1.98
ACTAACCCATGGACCGGTTTTCCCGGTAATCCGTATTTGGC (site ACTAACCCTGC)	0
ACTAATGCATGGACCGGTTTTCCCGGTAATCCGTATTTGGT (site ACTAATGCTAC)	1.88
ACTAATGCATGGACCGGTTTTCCCGGTAATCCGTATTTGGT (site ACTACTGCTAC)	0.116
ACTAATGCATGGACCGGTTTTCCCGGTAATCCGTATTTGGT (site ACTAGTGCTAC)	0.00699
ACTAATGCATGGACCGGTTTTCCCGGTAATCCGTATTTGGT (site ACTATTGCTAC)	0.568
ACTACAACATGGACCGGTTTTCCCGGTAATCCGTATTTGAG (site ACTAAAACTCT)	0.00762
ACTACAACATGGACCGGTTTTCCCGGTAATCCGTATTTGAG (site ACTACAACTCT)	1.22
ACTACAACATGGACCGGTTTTCCCGGTAATCCGTATTTGAG (site ACTAGAACTCT)	0.216
ACTACAACATGGACCGGTTTTCCCGGTAATCCGTATTTGAG (site ACTATAACTCT)	0.494
ACTAGAACATGGACCGGTTTTCCCGGTAATCCGTATTTGAA (site ACTAGAACTAT)	0

Sequence	recombinant UMI read abundance (log10)
ACTAGAACATGGACCGGTTTTCCCGGTAATCCGTATTTGAA (site ACTAGAACTCT)	0
ACTAGAACATGGACCGGTTTTCCCGGTAATCCGTATTTGAA (site ACTAGAACTGT)	0
ACTAGAACATGGACCGGTTTTCCCGGTAATCCGTATTTGAA (site ACTAGAACTTT)	1.45
ACTAGAACATGGACCGGTTTTCCCGGTAATCCGTATTTGAC (site ACTAGAACTAT)	0.00676
ACTAGAACATGGACCGGTTTTCCCGGTAATCCGTATTTGAC (site ACTAGAACTCT)	0.0218
ACTAGAACATGGACCGGTTTTCCCGGTAATCCGTATTTGAC (site ACTAGAACTGT)	2.13
ACTAGAACATGGACCGGTTTTCCCGGTAATCCGTATTTGAC (site ACTAGAACTTT)	0.322
ACTAGAACATGGACCGGTTTTCCCGGTAATCCGTATTTGAT (site ACTAGAACTAT)	1.24
ACTAGAACATGGACCGGTTTTCCCGGTAATCCGTATTTGAT (site ACTAGAACTCT)	0.0111
ACTAGAACATGGACCGGTTTTCCCGGTAATCCGTATTTGAT (site ACTAGAACTGT)	0
ACTAGAACATGGACCGGTTTTCCCGGTAATCCGTATTTGAT (site ACTAGAACTTT)	0.0117
ACTAGATCATGGACCGGTTTTCCCGGTAATCCGTATTTGAG (site ACTAGAACTCT)	0.00628
ACTAGATCATGGACCGGTTTTCCCGGTAATCCGTATTTGAG (site ACTAGACCTCT)	0.0156
ACTAGATCATGGACCGGTTTTCCCGGTAATCCGTATTTGAG (site ACTAGAGCTCT)	0.00838
ACTAGATCATGGACCGGTTTTCCCGGTAATCCGTATTTGAG (site ACTAGATCTCT)	2.52
ACTAGTACATGGACCGGTTTTCCCGGTAATCCGTATTTGAG (site ACTAGAACTCT)	0.692
